Measurements as given in ChEMBL document CHEMBL1132615, “Structure--activity relationships of lysophosphatidic acid: conformationally restricted backbone mimetics” (J Med Chem, 1999).
pEC50: −log10 of the molar value.

Assay: Relative potency was evaluated for its ability to mobilize intracellular calcium in MDA MB231 cells.
Assay type: functional, cell-based
Conditions: Homo sapiens, MDA-MB-231
In the case of `CCCCCC/C=C\CCCCCCCC(=O)Nc1cccc(OP(=O)(O)O)c1`, the pEC50 was 6.34. In the case of `CCCCCCCCCCCCCCCC(=O)Oc1cccc(OP(=O)(O)O)c1`, the pEC50 was 6.51. `CCCCCCCCCCCCCCCC(=O)Nc1cccc(OP(=O)(O)O)c1` showed a pEC50 of 6.34. In the case of `CCCCCC/C=C\CCCCCCCC(=O)Nc1ccc(OP(=O)(O)O)cc1`, the pEC50 was 5.74. Compound `CCCCCCCC/C=C\CCCCCCCC(=O)OCC(O)COP(=O)(O)O` (single isomer, unassigned) [LYSOPHOSPHATIDIC ACID] has a pEC50 of 8.30.

Assay: Relative potency was evaluated for its ability to mobilize intracellular calcium in MDA MB231 cells.*did not reach a maximal response at the highest concentration used
Assay type: functional, cell-based
Conditions: Homo sapiens, MDA-MB-231
With `CCCCCCCC/C=C\CCCCCCCC(=O)NCCOP(=O)(O)O` the pEC50 was 8.52. `CCCCCCCCCCCC(=O)Oc1ccc(C(=O)c2ccc(OP(=O)(O)O)cc2)cc1` showed a pEC50 of 5.33. For `CCCCCCCCCC(=O)Oc1ccc(C(=O)c2ccc(OP(=O)(O)O)cc2)cc1`, the pEC50 was under 3.30. `CCCCCCCC(=O)Oc1ccc(C(=O)c2ccc(OP(=O)(O)O)cc2)cc1` showed a pEC50 of under 3.30. In the case of `CCCCCCCCCCCCCCCC(=O)Nc1ccc(OP(=O)(O)O)cc1`, the pEC50 was 5.81. For `CCCCCC/C=C\CCCCCCCC(=O)Oc1cccc(OP(=O)(O)O)c1`, the pEC50 was 6.07. `CCCCCCCCCCCCCC(=O)Oc1ccc(C(=O)c2ccc(OP(=O)(O)O)cc2)cc1` gave a pEC50 of 5.70.
